For assay [1], the target named is human recombinant EP4 receptor (Homo sapiens, UniProt P35408). Put plainly: [3H]-PGE2 specific binding on human recombinant EP4 receptor (HEK293 membranes). The procedure: Cell membranes were prepared from HEK293 cell line (Human Embryonic Kidney 293) stably overexpressing human recombinant EP4 receptor. Cells grow adherent in DMEM with Glutamax | containing 10% FBS at 37° C. with 5% CO2. For membranes preparation, culture medium was aspirated from 150 cm^2 flasks in which cells were seeded. Cell monolayers were washed with 10 ml of hypotonic lysis buffer (TRIS 5 mM+EDTA 5 mM-pH 7.4), then cells were detached and lysed with the same buffer and by mechanical scraping. Lysates were centrifuged at 40000×g at 4° C. for 22 min. Pellets were stored at −80° C. until the use.
human recombinant EP4 receptor, sequence (P35408 whole entry): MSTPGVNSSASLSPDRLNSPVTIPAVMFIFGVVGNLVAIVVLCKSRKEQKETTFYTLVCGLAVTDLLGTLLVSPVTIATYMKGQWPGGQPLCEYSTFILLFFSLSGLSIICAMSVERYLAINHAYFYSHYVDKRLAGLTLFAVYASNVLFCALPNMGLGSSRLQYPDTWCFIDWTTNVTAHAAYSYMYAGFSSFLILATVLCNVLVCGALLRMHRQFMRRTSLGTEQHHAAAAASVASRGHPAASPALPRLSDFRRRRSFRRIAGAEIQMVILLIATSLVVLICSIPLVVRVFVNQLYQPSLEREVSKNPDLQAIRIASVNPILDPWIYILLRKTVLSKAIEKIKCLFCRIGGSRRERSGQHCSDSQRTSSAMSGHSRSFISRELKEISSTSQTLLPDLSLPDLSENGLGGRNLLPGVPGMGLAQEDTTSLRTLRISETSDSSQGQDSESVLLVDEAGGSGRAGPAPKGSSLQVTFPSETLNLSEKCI
[3H]-Prostaglandin E2 ([3H]-PGE2) binding assays were performed in 10 mM MES-KOH buffer pH6, containing 10 mM MgCl2 and 1 mM CaCl2. Ten microgram of protein from membrane fractions are incubated in a total volume of 0.1 ml with 1 nM [3H]-PGE2. In order to determine the total binding or the non specific binding, 1% DMSO or 1 μM PGE2 were added to reaction mixtures, respectively. The specific binding represented >85% of total binding. In competition curves, the diluent was substituted by the test compounds (8 concentration spanning at least 2 order of magnitude; points in duplicates). In an independent series of experiments, competition curves of the same compounds were performed in the presence of Bovine Serum Albumin 0.5%. Incubation was carried out in a 96 multiwell plate for 90 min at room temperature, prior to separation of the bound and free radioligand by rapid filtration on glass fiber filters (Unifilter GFB96, PerkinElmer Inc) pre-soaked in 0.3% polyethyleneimine. Filters were washed with ice cold buffer pH 7.4 (50 mM HEPES, NaCl 500 mM, BSA 0.1%), dried for 30 minutes at 30° C. and then 0.1 ml of MICROSCINT-20 (PerkinElmer Inc) were added. The residual [3H]-PGE2 binding was determined by solid scintillation counter (TopCount, PerkinElmer Inc), after at least 1 hour of stabilization. Results of the competition curves were expressed as IC50 and the corresponding Ki were calculated according to the Chang-Prousoff equation. Finally the Ki value was transformed in pKi (the negative log of Ki).

Assay [2] has as its target T1, rat EP4R (Rattus norvegicus, UniProt P43114).
T1 construct: whole blood culture samples from animals treated orally with vehicle or Compound 1; from tissue; host or cells: whole blood of male Wistar Han rats
As to the kind of experiment: Ex vivo TNF-α release induced by LPS in whole blood of orally dosed rats: PGE2 IC50 vs dose and time. The procedure: Male Wistar Han rats (250-300 g b.w., Charles River, Italy) were housed six per cage in a temperature controlled room, set to maintain temperature within the range of 20° C. ±2° C. and relative humidity within the range of 55%+10 and with a 12-h/12-h light/dark cycle. Throughout the study animals had free access to standard laboratory chow (Teklad rodent diet 2018, Harlan Laboratories, S. Pietro al Natisone, UD, Italy) and drinking water. Care and handling of the animals were in accordance with the guidelines of the Local Government and the regulations of the European Community.
Authorization for experimental procedures was granted by the Italian Ministry of Health. […]
In details the day of the experiments, animals were anaesthetized with 2.5-3% isoflurane in O2 inside an induction chamber and blood (in average 7 ml/rat) was drawn from the abdominal aorta. […] Compared to the reference standard curve, TNF-α levels in samples were expressed as concentration (pg/ml).
For each animal, percent of inhibition by different PGE2 concentrations with respect to control sample, and the corresponding IC50 (or the half-maximal inhibitory concentration in a range 0-100% inhibition) were calculated by linear regression analysis. Moreover, in each treatment group either the mean TNF-α levels and the mean % inhibition by PGE2 were calculated. […]

From patent US12544365B2, “Pharmaceutical combination of an EP4 antagonist and immune checkpoint inhibitors for the treatment of tumours” (ROTTAPHARM BIOTECH S.R.L., priority 2019, dated 2026) come the findings set out here.

T1 sequence (P43114 whole entry): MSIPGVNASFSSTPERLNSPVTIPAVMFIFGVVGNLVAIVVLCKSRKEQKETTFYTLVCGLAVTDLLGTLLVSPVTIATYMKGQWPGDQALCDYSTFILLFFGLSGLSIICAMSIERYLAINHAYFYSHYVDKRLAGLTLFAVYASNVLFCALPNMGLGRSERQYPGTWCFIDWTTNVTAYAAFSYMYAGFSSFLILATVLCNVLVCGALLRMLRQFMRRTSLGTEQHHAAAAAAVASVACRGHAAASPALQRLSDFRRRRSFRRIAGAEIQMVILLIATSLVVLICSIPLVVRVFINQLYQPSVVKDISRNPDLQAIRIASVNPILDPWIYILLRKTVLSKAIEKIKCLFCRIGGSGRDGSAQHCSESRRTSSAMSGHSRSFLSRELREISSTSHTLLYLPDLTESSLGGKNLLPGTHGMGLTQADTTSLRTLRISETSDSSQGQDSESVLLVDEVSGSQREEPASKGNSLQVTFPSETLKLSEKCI

In the case of `O=C([O-])c1ccc(C2(NC(=O)[C@H]3CC4(CCN3Cc3ccc(C(F)(F)F)cc3)CC4)CC2)cc1.[Na+]` [Compound 1, sodium (R)-4-(1-(6-(4-(trifluoromethyl)benzyl)-6-azaspiro[2.5]octane-5-carboxamido)cyclopropyl)benzoate], the values for the Ki in assay [1] (BSA 0.5%) and in assay [1] (None (absence of BSA)) were 25.1 nM and 12.6 nM, respectively. Also, in assay [2] (10 mg/kg oral, blood sampling 1-3-24 hours), the “reversion of PGE2 TNF-α release inhibition, time course” value is reported as “still evident also 24 hours after Compound 1 administration”. This molecule had a minimum effective dose in assay [2] (oral, rat, reversion of PGE2 inhibition of TNF-α release) of 10 mg/kg.

A word on the Ki: it is a dissociation constant, usually derived from enzyme kinetics or from competition with a known ligand.
